Measured values as given in ChEMBL document CHEMBL1201862, “PubChem BioAssay data set” (2004).
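The compound was tested at five concentrations on cells cultured in 96-well plates, with a 48-hour exposure period. The concentration for 50% growth inhibition is given as GI50.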 Active and inactive are the calls of the source. No stated cut-off is given here; in the data, active = GI50 up to about 1.1 µM and inactive = higher.

Key:
Assay in all cases: NCI anticancer screen, dose series, 48 h
[1] = system: 786-0
[2] = system: A498
[3] = system: A549
[4] = system: ACHN
[5] = system: CAKI-1
[6] = system: CCRF-CEM
[7] = system: COLO 205
[8] = system: DLD-1
[9] = system: DMS-114
[10] = system: DMS-273
[11] = system: EKVX
[12] = system: HCC 2998
[13] = system: HCT-116
[14] = system: HL-60
[15] = system: HOP-92
[16] = system: HT-29
[17] = system: IGROV-1
[18] = system: K562
[19] = system: KM12
[20] = system: LXFL 529
[21] = system: M19-MEL
[22] = system: MOLT-4
[23] = system: Malme-3M
[24] = system: NCI-H226
[25] = system: NCI-H23
[26] = system: NCI-H460
[27] = system: NCI-H522
[28] = system: OVCAR-3
[29] = system: OVCAR-5
[30] = system: OVCAR-8
[31] = system: RPMI-8226
[32] = system: RXF 393
[33] = system: SF-268
[34] = system: SF-295
[35] = system: SF-539
[36] = system: SK-MEL-28
[37] = system: SK-MEL-2
[38] = system: SK-MEL-5
[39] = system: SK-OV-3
[40] = system: SN12C
[41] = system: SNB-19
[42] = system: SNB-75
[43] = system: SNB-78
[44] = system: SR
[45] = system: SW-620
[46] = system: TK-10
[47] = system: U-251
[48] = system: UACC-257
[49] = system: UACC-62
[50] = system: UO-31
[51] = system: HOP-62
[52] = system: M14
[53] = system: BT-549
[54] = system: DU-145
[55] = system: HCT-15
[56] = system: Hs-578T
[57] = system: LOX IMVI
[58] = system: MCF7
[59] = system: MDA-MB-231
[60] = system: MDA-MB-435
[61] = system: MDA-N
[62] = system: NCI/ADR-RES
[63] = system: OVCAR-4
[64] = system: PC-3
[65] = system: T47D

COc1ccc(C2[C@@H](Cl)C(=O)N2c2ccc(OC)cc2)cc1 (some centres undefined)
GI50 [1]: 36.6 µM (inactive) | GI50 [2]: 12.2 µM (inactive) | GI50 [3]: > 100 µM (inactive) | GI50 [4]: 41.8 µM (inactive) | GI50 [5]: 30.4 µM (inactive) | GI50 [6]: 39.1 µM (inactive) | GI50 [7]: > 100 µM (inactive) | GI50 [8]: 89.5 µM (inactive) | GI50 [9]: 53 µM (inactive) | GI50 [10]: 62.7 µM (inactive) | GI50 [11]: > 100 µM (inactive) | GI50 [12]: > 100 µM (inactive) | GI50 [13]: 18.6 µM (inactive) | GI50 [14]: 20.4 µM (inactive) | GI50 [15]: 11.6 µM (inactive) | GI50 [16]: > 100 µM (inactive) | GI50 [17]: > 100 µM (inactive) | GI50 [18]: 19.5 µM (inactive) | GI50 [19]: > 100 µM (inactive) | GI50 [20]: 62.8 µM (inactive) | GI50 [21]: 50.5 µM (inactive) | GI50 [22]: 35.9 µM (inactive) | GI50 [23]: 45.9 µM (inactive) | GI50 [24]: > 100 µM (inactive) | GI50 [25]: > 100 µM (inactive) | GI50 [26]: 51.4 µM (inactive) | GI50 [27]: 36 µM (inactive) | GI50 [28]: 93.1 µM (inactive) | GI50 [29]: > 100 µM (inactive) | GI50 [30]: 46.2 µM (inactive) | GI50 [31]: 98.6 µM (inactive) | GI50 [32]: 22.4 µM (inactive) | GI50 [33]: > 100 µM (inactive) | GI50 [34]: 28.7 µM (inactive) | GI50 [35]: 19.8 µM (inactive) | GI50 [36]: > 100 µM (inactive) | GI50 [37]: 62.5 µM (inactive) | GI50 [38]: > 100 µM (inactive) | GI50 [39]: 23.1 µM (inactive) | GI50 [40]: > 100 µM (inactive) | GI50 [41]: 45.5 µM (inactive) | GI50 [42]: 15.1 µM (inactive) | GI50 [43]: > 100 µM (inactive) | GI50 [44]: 40.5 µM (inactive) | GI50 [45]: > 100 µM (inactive) | GI50 [46]: > 100 µM (inactive) | GI50 [47]: > 100 µM (inactive) | GI50 [48]: 46 µM (inactive) | GI50 [49]: 33.6 µM (inactive) | GI50 [50]: 56.8 µM (inactive)

COC(=O)CN1CCS/C1=N/C#N
GI50 [2]: > 100 µM (inactive) | GI50 [3]: > 100 µM (inactive) | GI50 [6]: > 100 µM (inactive) | GI50 [10]: > 100 µM (inactive) | GI50 [11]: > 100 µM (inactive) | GI50 [14]: > 100 µM (inactive) | GI50 [51]: > 100 µM (inactive) | GI50 [15]: > 100 µM (inactive) | GI50 [16]: > 100 µM (inactive) | GI50 [17]: > 100 µM (inactive) | GI50 [18]: > 100 µM (inactive) | GI50 [19]: > 100 µM (inactive) | GI50 [52]: > 100 µM (inactive) | GI50 [22]: > 100 µM (inactive) | GI50 [24]: > 100 µM (inactive) | GI50 [25]: > 100 µM (inactive) | GI50 [26]: > 100 µM (inactive) | GI50 [27]: > 100 µM (inactive) | GI50 [29]: > 100 µM (inactive) | GI50 [32]: > 100 µM (inactive) | GI50 [33]: > 100 µM (inactive) | GI50 [36]: > 100 µM (inactive) | GI50 [39]: > 100 µM (inactive) | GI50 [41]: > 100 µM (inactive) | GI50 [43]: > 100 µM (inactive) | GI50 [44]: > 100 µM (inactive) | GI50 [46]: > 100 µM (inactive) | GI50 [47]: > 100 µM (inactive) | GI50 [49]: > 100 µM (inactive) | GI50 [50]: > 100 µM (inactive)

COc1cc2ncnc(Nc3cccc(Cl)c3)c2cc1OC [TYRPHOSTIN AG-1478]
GI50 [1]: 6.28 µM (inactive) | GI50 [2]: 2.54 µM (inactive) | GI50 [3]: 10.6 µM (inactive) | GI50 [4]: 0.0446 µM (active) | GI50 [53]: 1.42 µM (inactive) | GI50 [5]: 0.248 µM (active) | GI50 [6]: 3.82 µM (inactive) | GI50 [7]: 17.9 µM (inactive) | GI50 [54]: 1.89 µM (inactive) | GI50 [11]: 0.392 µM (active) | GI50 [12]: 13.6 µM (inactive) | GI50 [13]: 17.6 µM (inactive) | GI50 [55]: 9.25 µM | GI50 [14]: 21.8 µM (inactive) | GI50 [51]: 20.8 µM (inactive) | GI50 [15]: 5.19 µM (inactive) | GI50 [16]: 9.38 µM (inactive) | GI50 [56]: 3.57 µM (inactive) | GI50 [17]: 0.0736 µM (active) | GI50 [18]: 8.71 µM (inactive) | GI50 [19]: 5.73 µM (inactive) | GI50 [57]: 11.5 µM (inactive) | GI50 [52]: 7.16 µM (inactive) | GI50 [58]: 21.5 µM (inactive) | GI50 [59]: 14.2 µM (inactive) | GI50 [60]: 11.9 µM (inactive) | GI50 [61]: 15.1 µM (inactive) | GI50 [22]: 16.4 µM (inactive) | GI50 [23]: 6.28 µM (inactive) | GI50 [24]: 2.4 µM (inactive) | GI50 [25]: 14.6 µM (inactive) | GI50 [26]: 13.4 µM (inactive) | GI50 [27]: 0.356 µM (active) | GI50 [62]: 3.63 µM (inactive) | GI50 [28]: 3.05 µM (inactive) | GI50 [63]: 18.1 µM (inactive) | GI50 [29]: 9.46 µM (inactive) | GI50 [30]: 3.66 µM (inactive) | GI50 [64]: 12.6 µM (inactive) | GI50 [31]: 8.85 µM (inactive) | GI50 [32]: 9.42 µM (inactive) | GI50 [33]: 4.67 µM (inactive) | GI50 [34]: 9.48 µM (inactive) | GI50 [35]: 15.9 µM (inactive) | GI50 [36]: 9.38 µM (inactive) | GI50 [37]: 9.27 µM (inactive) | GI50 [38]: 6.1 µM (inactive) | GI50 [39]: 0.472 µM (active) | GI50 [40]: 8.91 µM (inactive) | GI50 [41]: 21 µM (inactive) | GI50 [42]: 2.57 µM (inactive) | GI50 [44]: 7.33 µM (inactive) | GI50 [45]: 16.1 µM (inactive) | GI50 [65]: 9.55 µM (inactive) | GI50 [46]: 0.173 µM (active) | GI50 [47]: 15.2 µM (inactive) | GI50 [48]: 7.57 µM (inactive) | GI50 [49]: 7.14 µM (inactive) | GI50 [50]: 4.47 µM (inactive)
